Experimental data as given in patent US7939091B2, “Biorational repellents obtained from terpenoids for use against arthropods” (Iowa State University Research Foundation, Inc., priority 1999, dated 2011).
“And” between values parts separate entries of the source, which are not always exact repeats. Identical values can stand only once.

What was measured:
[1] = test system: German cockroach (Blattella germanica); test: Choice test arena repellency bioassay, adult male German cockroach, 300-second test; format: in vivo; details: for Mean Treated / Mean Untreated: 300-second test; for % repellency: (untreated − treated/300)*100
Protocol: Test Procedure. Repellency bioassays were conducted to assess the repellent properties of compositions containing catnip steam distillate (nepetalactone), Z,E-nepetalactone, E,Z-nepetalactone and DEET against cockroaches. Certified acetone and certified hexane were also tested in order to evaluate solvent effects. (DEET was dissolved in acetone, because DEET is insoluble in hexane. The tested compounds were dissolved in hexane because hexane was the solvent used to extract these compounds from the distillate). One Whatman 125-mm round filter paper was cut in half. One side was treated with one (1) ml of the test compound and the other side was treated with one (1) ml of solvent. The papers were allowed to dry in a fume hood for approximately two (2) minutes before being placed in a 150-mm Petri dish arena. The relative position of the treated side (i.e., to the right or left) of the dish was randomized using a random number table. […] The hole was stopped using a small piece of tape to prevent the insect from escaping. One adult male German cockroach (Blattella germanica) was selected from the colony and dropped into the pre-formed hole in the Petri dish lid. […] Ten (10) replications were performed for each test compound. Results. Using mean values and their related Standard Error of the Mean values (SEM), repellency of the selected samples was determined as shown in Table 2. Significance due to concentration was determined using ANOVA. […] Comparisons between test compounds were made using a two-tailed paired t-test (“paired t-test”) which indicates “differences” as is known in the art and shown in Table 4 (as compared with a “one-tailed” test, which indicates “greater or less than”). Testing Procedure. The same procedure described in Example 1 was used.

[2] = test system: northern house mosquito, Culex pipiens; test: Static-air choice-test apparatus, percentage and contact repellency bioassay; format: in vivo; details: 15 minutes
Protocol: A static-air choice-test apparatus as described above was used to determine the behavioral effects on the insects in this study. The apparatus consisted of a 9×60-cm section of glass tubing with a 2-cm hole drilled at the midpoint along the length for central introduction of the insects. All of the testing was conducted in an environmental chamber at 26° C.
Treatments included catnip essential oil, obtained by steam distillation as described herein and in Peterson, et al., J. Econ. Entomol., 2002, 95, 377-380. Osage orange essential oil, obtained by steam distillation of whole fruits previously described in Peterson, et al., J. Essential Oil Res., 2002, 14, 233-236, elemol (Augustus Oils, New Hampshire, England), and DEET (Aldrich, St. Louis, Mo.) test solutions at 1%, 0.5% and 0.1% concentrations (wt/vol). The test solutions' solvent, hexane, served as a control treatment in this assay.
One milliliter of the solution was applied to one half of a 9-cm diameter round filter paper with an area of 63.6 cm^2 and then allowed to dry before testing. […] Treated filter papers were placed inside the lids of 9-cm glass petri dishes, and placed over the ends of the glass tube. The position of the treated side, to the right or to the left, was selected by using a random-number table. Approximately fifteen unmated adult female mosquitoes were anaesthetized with CO2 and then introduced to the 9×60-cm glass cylinder through the centered 2-cm hole. Timing began two minutes after mosquito introduction, and mosquito distribution inside the static-air choice-test apparatus was observed over a 180-minute period for each treatment. Mosquito distribution (number of individuals on treated and untreated side) was recorded at 15, 30, 60, 90, 120, and 180-minute timepoints.
The data generated by this study was used to examine two measures of mosquito repellency, percentage repellency and contact repellency. Percentage repellency was calculated for with the following formula: Percentage Repellency=((Number of Individuals on Untreated Half-Number of Individuals on Treated Half)/15)×100.
Contact repellency was defined in this assay as 100% avoidance of the treated filter paper (no contact). 15, 30, 60, 90, 120, and 180-minute time-points were used to assess contact repellency for individual observations.
The experimental design was a completely randomized design using three replications of each treatment. Analysis of variance was performed on SAS (PROC GLM; SAS Version 8) to identify significant differences of percentage repellency due to treatment, and concentration. Multiple comparisions were completed using Tukey's procedure. Treatment pair-wise comparisons of contact repellency, which included data from the six time-points observed for each treatment, were completed using Fishers Exact (PROC FREQ; SAS Version 8).

[3] = 0.1% test solution vs solvent-treated half, male
[4] = 0.5% test solution vs solvent-treated half, male
[5] = 1% test solution vs solvent-treated half, male
[6] = 5% test solution vs solvent-treated half, male
[7] = 10% test solution vs solvent-treated half, male
[8] = concentration 0.1% (15.7 μg/cm^2)
[9] = concentration 0.5% (78.6 μg/cm^2)

SMILES: CCN(CC)C(=O)c1cccc(C)c1 [DEET, N,N-diethyl-3-methylbenzamide, reference compound]
- Mean Treated [1, 3]: 129 s
- Mean Untreated [1, 3]: 175 s
- Mean Treated [1, 4]: 128 s
- Mean Untreated [1, 4]: 175 s
- Mean Treated [1, 5]: 120 s
- Mean Untreated [1, 5]: 181 s
- Mean Treated [1, 6]: 113 s
- Mean Untreated [1, 6]: 190 s
- Mean Treated [1, 7]: 63 s and 63.4 s
- Mean Untreated [1, 7]: 238 s
- Mean seconds on treated side ± SEM ([1]; Non-antennectomized male cockroaches, 1600 μg/cm^2): 63.4 ± 15.9 s
- % repellency ([1]; dose 16 μg/cm^2): 15%
- Mean seconds on treated side ± SEM ([1]; dose 16 μg/cm^2, male B. germanica, in 300 seconds): 129 ± 9.0 a seconds
- % repellency ([1]; dose 80 μg/cm^2): 16%
- Mean seconds on treated side ± SEM ([1]; dose 80 μg/cm^2, male B. germanica, in 300 seconds): 128 ± 9.7 a seconds
- % repellency ([1]; dose 160 μg/cm^2): 20%
- Mean seconds on treated side ± SEM ([1]; dose 160 μg/cm^2, male B. germanica, in 300 seconds): 120 ± 13.8 a seconds
- % repellency ([1]; dose 800 μg/cm^2): 26%
- Mean seconds on treated side ± SEM ([1]; dose 800 μg/cm^2, male B. germanica, in 300 seconds): 113 ± 14.5 a seconds
- % repellency ([1]; dose 1600 μg/cm^2): 58%
- Mean seconds on treated side ± SEM ([1]; dose 1600 μg/cm^2, male B. germanica, in 300 seconds): 63.4 ± 15.9 b seconds
- Percentage Repellency [2, 8]: 59.3%
- Percentage Repellency [2, 9]: 62.3%
- Percentage Repellency ([2]; concentration 1% (157 μg/cm^2)): 44.4%

SMILES: C=CC1(C)CCC(C(C)(C)O)CC1C(=C)C (stereo not drawn) [Elemol]
- Mean Treated ([1]; amount used 1% solution): 107 s
- Mean Untreated ([1]; amount used 1% solution): 196 s
- % repellency ([1]; amount used 1% solution): 30%
- Percentage Repellency [2, 8]: 63.0%
- Percentage Repellency [2, 9]: 81.3%
- Percentage Repellency ([2]; concentration 1% (157 μg/cm^2)): 74.1%
